Results as given in patent US20080146457A1, “METHOD FOR THE DETERMINATION OF CELL ACTIVATION” (priority 2003, published 2008).

How the values were obtained:
Format in all cases: cell-based
Erk1/2 = test: Phosphorylation status of Erk1/2 in PMA-treated Jurkat cells on double antibody array; conditions: PMA 0.1 to 1000 ng/ml, 10 minutes
JNK1/2 = test: Level of phosphorylation of JNK1/2 in anisomycin-treated Jurkat cells on multiplex arrays
Method: (§1) Hybridization chambers were placed onto diaglass functionalized slides (EAT, Namur, Belgium) spotted with antibodies specific of the protein to be detected, in this case anti-Akt antibodies. The spotting was performed with a split pin or a pin and ring or a plain pin. Each spot contained between 0.5 and 10 nl depending on the type of pin used and its diameter.
(§2) The slides were washed 4×1 min in Washing Buffer (EAT, Namur, Belgium). The slides were then incubated for 1 h with 500 μl of a specific rabbit detection antibody against phospho-Akt diluted 500× in Blocking Buffer (EAT, Namur, Belgium). The slides were washed 4×1 min in Washing Buffer. The slides were then incubated for 45 min at room temperature with a conjugated antibody (anti-rabbit Cy3) diluted 1000× in Blocking Buffer. The slides were washed 4×1 min in Washing Buffer and then rinsed twice in water. The slides were scanned in a laser confocal scanner “ScanArray” (Packard, USA) at a resolution of 10 μm.
(§3) The assay was performed as described in Example 1, but two identical arrays were present on each slide. The capture antibodies spotted on the left and right arrays were the same, but the detection antibodies were either specific to the phospho-Akt (right arrays) or to the total Akt (left arrays). Four different mixes were prepared as follows: (1) 40 ng of purified Akt and 40 ng of purified phospho Akt; (2) 40 ng of purified Akt and 20 ng of purified phospho Akt; (3) 40 ng of purified Akt and 10 ng of purified phospho Akt; (4) 40 ng of purified Akt and 5 ng of purified phospho Akt. In this experiment, four slides were used. […] The intensity of the spots on each array was then quantified and the results clearly show decreasing signal intensities correlating with decreasing concentrations of phospho-Akt on the right arrays. The calculated ratios of phospho vs. total Akt directly relates to the known concentration used in the four different mixes.
(§4) Each slide contained 2 identical arrays. The two arrays were incubated with the same samples possibly containing the proteins to be detected. The left array was then incubated with a mixture of 7 detection antibodies directed against the 7 proteins to be detected. The right array was incubated with a mixture of 7 detection antibodies directed against the phospho-specific form of the 7 proteins to be detected. […] The samples consisted of each of the 7 proteins to be detected, in their non-phosphorylated or phosphorylated form, or combinations thereof.
(§5) The experiment was performed on slides containing a double array as presented in Example 4. […] The protein chips allowed to simultaneously quantify the level of phosphorylation of p38 and JNK1/2 due to the effect of anisomycin on cells.

p38 = test: Level of phosphorylation of p38 in anisomycin-treated Jurkat cells on multiplex arrays
Method: as §1, §2, §3, §4, §5

[1] = 8 different concentrations of anisomycin

| Structure (SMILES) | amount of Erk1/2 (total protein) (Erk1/2) | levels of phosphorylation at threonine 185 and tyrosine 187 of Erk1/2 (Erk1/2) | level of phospho form of JNK1/2 (JNK1/2; [1]) | level of total JNK1/2 (JNK1/2; [1]) | ratio of Phospho vs. total forms of JNK1/2 (JNK1/2; anisomycin 0.01 μM) | ratio of Phospho vs. total forms of JNK1/2 (JNK1/2; anisomycin 1 μM) | level of phospho form of p38 (p38; [1]) | level of total p38 (p38; [1]) | ratio of Phospho vs. total forms of p38 (p38; anisomycin 1 μM) | ratio of Phospho vs. total forms of p38 (p38; anisomycin 100 μM) |
| --- | --- | --- | --- | --- | --- | --- | --- | --- | --- | --- |
| CCCCCCCCCCCCCC(=O)O[C@@H]1[C@@H](C)[C@@]2(O)[C@@H](C=C(CO)C[C@]3(O)C(=O)C(C)=C[C@@H]23)[C@@H]2C(C)(C)[C@]12OC(C)=O [PMA, phorbol 12-myristate 13-acetate] | remains constant | increase with the amount of PMA |  |  |  |  |  |  |  |  |
| COc1ccc(C[C@H]2NC[C@H](O)[C@H]2OC(C)=O)cc1 [anisomycin] |  |  | increase with the anisomycin concentration | remain constant | 0.33 | 0.88 | increase with the anisomycin concentration | remain constant | 0.33 | 1.0 |
